Reference: US11066396B2 (priority 2016, dated 2021)
pIC50: −log10 of the molar value.

How the values were obtained:
HDAC5 = HDAC5 (Homo sapiens (Human), UniProt Q9UQL6); details: read-out: HDAC5 IC50
HDAC1 = HDAC1 (Homo sapiens (Human), UniProt Q13547); details: read-out: HDAC1 IC50
HDAC8 = HDAC8 (Homo sapiens (Human), UniProt Q9BY41); details: read-out: HDAC8 IC50
HDAC8, sequence (Q9BY41 whole entry): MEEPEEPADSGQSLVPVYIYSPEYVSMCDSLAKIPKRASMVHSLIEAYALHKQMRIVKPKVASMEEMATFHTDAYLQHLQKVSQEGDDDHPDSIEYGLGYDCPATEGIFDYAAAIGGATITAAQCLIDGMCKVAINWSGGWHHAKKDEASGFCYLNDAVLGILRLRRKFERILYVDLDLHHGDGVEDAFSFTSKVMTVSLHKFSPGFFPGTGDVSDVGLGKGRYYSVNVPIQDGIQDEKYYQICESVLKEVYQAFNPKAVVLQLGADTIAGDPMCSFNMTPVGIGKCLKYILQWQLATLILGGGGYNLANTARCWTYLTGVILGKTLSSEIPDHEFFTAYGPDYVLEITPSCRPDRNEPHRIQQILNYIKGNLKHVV

HDAC5, sequence (Q9UQL6 656-1122): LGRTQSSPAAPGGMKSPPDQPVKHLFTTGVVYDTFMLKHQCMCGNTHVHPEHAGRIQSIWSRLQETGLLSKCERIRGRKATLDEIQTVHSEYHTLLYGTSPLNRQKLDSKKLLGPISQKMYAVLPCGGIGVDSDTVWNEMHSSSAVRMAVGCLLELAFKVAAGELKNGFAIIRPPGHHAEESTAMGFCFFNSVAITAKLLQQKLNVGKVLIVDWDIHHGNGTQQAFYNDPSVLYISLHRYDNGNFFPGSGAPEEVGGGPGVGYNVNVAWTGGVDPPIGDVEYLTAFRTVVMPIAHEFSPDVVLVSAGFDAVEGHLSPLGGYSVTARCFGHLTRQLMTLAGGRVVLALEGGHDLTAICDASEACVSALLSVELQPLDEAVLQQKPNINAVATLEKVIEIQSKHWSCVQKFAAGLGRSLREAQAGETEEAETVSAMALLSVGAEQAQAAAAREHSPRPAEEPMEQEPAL
HDAC1, sequence (Q13547 whole entry): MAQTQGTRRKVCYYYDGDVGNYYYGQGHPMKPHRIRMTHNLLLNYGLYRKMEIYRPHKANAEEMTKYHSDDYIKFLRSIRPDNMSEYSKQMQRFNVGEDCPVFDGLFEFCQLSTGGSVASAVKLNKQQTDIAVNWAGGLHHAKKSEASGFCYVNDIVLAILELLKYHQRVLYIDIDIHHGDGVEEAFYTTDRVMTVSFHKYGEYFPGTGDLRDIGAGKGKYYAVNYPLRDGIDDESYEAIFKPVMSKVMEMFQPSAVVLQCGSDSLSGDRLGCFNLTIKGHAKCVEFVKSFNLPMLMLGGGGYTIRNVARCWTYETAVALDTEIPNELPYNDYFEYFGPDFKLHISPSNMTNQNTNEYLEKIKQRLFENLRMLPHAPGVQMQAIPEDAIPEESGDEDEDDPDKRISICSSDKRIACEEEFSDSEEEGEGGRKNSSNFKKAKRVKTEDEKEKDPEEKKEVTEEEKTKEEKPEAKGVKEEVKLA

| SMILES | pIC50 (HDAC5) | pIC50 (HDAC1) | pIC50 (HDAC8) |
| --- | --- | --- | --- |
| O=C1CCC(c2ccccc2)N1c1cc(F)c(-c2noc(C(F)(F)F)n2)cc1F (stereo not drawn) [Example 41, 1-(2,5-difluoro-4-(5-(trifluoromethyl)-1,2,4-oxadiazol-3-yl)phenyl)-5-phenylpyrrolidin-2-one] | 7.72 | 6.21 | 5.22 |
| O=C1CCC(c2ccccc2)N1c1ccc(-c2noc(C(F)(F)F)n2)cc1F (stereo not drawn) [Example 42, 1-(2-fluoro-4-(5-(trifluoromethyl)-1,2,4-oxadiazol-3-yl)phenyl)-5-phenylpyrrolidin-2-one] | 7.57 | 6.28 | 5.85 |
| O=C1CCC(c2ccccc2)N1c1ccc(-c2noc(C(F)(F)F)n2)c(F)c1 (stereo not drawn) [Example 43, 1-(3-fluoro-4-(5-(trifluoromethyl)-1,2,4-oxadiazol-3-yl)phenyl)-5-phenylpyrrolidin-2-one] | 7.13 | 5.72 | 5.44 |
| O=C(N1CCOCC1)N(Cc1ccc(-c2noc(C(F)(F)F)n2)cn1)c1cccc(C(F)(F)F)c1 [Example 49, N-((5-(5-(trifluoromethyl)-1,2,4-oxadiazol-3-yl)pyridin-2-yl)methyl)-N-(3-(trifluoromethyl)phenyl)morpholine-4-carboxamide] | 5.72 | 6.00 | 5.00 |
| O=C(C1CCS(=O)(=O)CC1)N(Cc1ccc(-c2noc(C(F)(F)F)n2)cn1)c1cccc(F)c1 [Example 55, N-(3-fluorophenyl)-N-((5-(5-(trifluoromethyl)-1,2,4-oxadiazol-3-yl)pyridin-2-yl)methyl)tetrahydro-2H-thiopyran-4-carboxamide 1,1-dioxide] | 5.96 | 6.60 | 5.64 |
| O=C(C1CCOCC1)N(Cc1ccc(-c2noc(C(F)(F)F)n2)cn1)c1cccc(F)c1 [Example 60, N-(3-fluorophenyl)-N-((5-(5-(trifluoromethyl)-1,2,4-oxadiazol-3-yl)pyridin-2-yl)methyl)tetrahydro-2H-pyran-4-carboxamide] | 6.19 | 6.64 | 5.68 |
| O=C(Cn1cncn1)N(Cc1ccc(-c2noc(C(F)(F)F)n2)cc1)c1cccc(C(F)(F)F)c1 [Example 68, 2-(1H-1,2,4-triazol-1-yl)-N-(4-(5-(trifluoromethyl)-1,2,4-oxadiazol-3-yl)benzyl)-N-(3-(trifluoromethyl)phenyl)acetamide] | 6.30 | 6.16 | 5.70 |
| CCc1nnc([C@@H]2CCC(=O)N2c2cc(F)c(-c3noc(C(F)(F)F)n3)cc2F)o1 [Example 105, (S)-1-(2,5-difluoro-4-(5-(trifluoromethyl)-1,2,4-oxadiazol-3-yl)phenyl)-5-(5-ethyl-1,3,4-oxadiazol-2-yl)pyrrolidin-2-one] | 7.74 | 6.15 | 5.18 |
| Cn1c([C@@H]2CCC(=O)N2c2ccc(-c3noc(C(F)(F)F)n3)cc2)nc2ccccc21 [Example 108, (S)-5-(1-methyl-1H-benzo[d]imidazol-2-yl)-1-(4-(5-(trifluoromethyl)-1,2,4-oxadiazol-3-yl)phenyl)pyrrolidin-2-one] | 6.92 | 5.70 | 5.54 |
| O=C1CCC(c2ccccc2Cl)N1c1ccc(-c2noc(C(F)(F)F)n2)cc1F (stereo not drawn) [Example 117, 5-(2-chlorophenyl)-1-(2-fluoro-4-(5-(trifluoromethyl)-1,2,4-oxadiazol-3-yl)phenyl)pyrrolidin-2-one] | 6.85 | 5.74 | 5.51 |
| Cc1noc([C@@H]2CCC(=O)N2c2ccc(-c3noc(C(F)(F)F)n3)cc2)n1 [Example 122, (S)-5-(3-methyl-1,2,4-oxadiazol-5-yl)-1-(4-(5-(trifluoromethyl)-1,2,4-oxadiazol-3-yl)phenyl)pyrrolidin-2-one] | 7.68 | 6.14 | 5.85 |
| CC(C)(C)OC(=O)[C@@H]1CCC(=O)N1c1ccc(-c2noc(C(F)(F)F)n2)c(F)c1F [Example 124, tert-butyl (S)-1-(2,3-difluoro-4-(5-(trifluoromethyl)-1,2,4-oxadiazol-3-yl)phenyl)-5-oxopyrrolidine-2-carboxylate] | 7.77 | 5.89 | 5.13 |
| O=C1COC[C@@H](c2ccccc2)N1c1ccc(-c2noc(C(F)(F)F)n2)cn1 [Example 126, (R)-5-phenyl-4-(5-(5-(trifluoromethyl)-1,2,4-oxadiazol-3-yl)pyridin-2-yl)morpholin-3-one] | 6.72 | 5.85 | 5.30 |
| CC(C)(C)OC(=O)N1C[C@@H](c2cc(F)cc(F)c2)N(c2ccc(-c3noc(C(F)(F)F)n3)cn2)C(=O)C1C1CCOCC1 (stereo partly drawn) [Example 127, tert-butyl (5R)-5-(3,5-difluorophenyl)-3-oxo-2-(tetrahydro-2H-pyran-4-yl)-4-(5-(5-(trifluoromethyl)-1,2,4-oxadiazol-3-yl)pyridin-2-yl)piperazine-1-carboxylate] | 6.44 | 5.14 | < 4.35 |
| FC(F)(F)c1nc(-c2ccc(N3CCOCC3c3ccccc3Cl)nc2)no1 (stereo not drawn) [Example 130, 3-(2-chlorophenyl)-4-(5-(5-(trifluoromethyl)-1,2,4-oxadiazol-3-yl)pyridin-2-yl)morpholine] | 7.13 | 6.32 | 5.82 |
| FC(F)(F)c1nc(-c2ccc(N3CCOCC3c3cccnc3)nc2)no1 (stereo not drawn) [Example 133, 3-(pyridin-3-yl)-4-(5-(5-(trifluoromethyl)-1,2,4-oxadiazol-3-yl)pyridin-2-yl)morpholine] | 7.51 | 6.80 | 6.46 |
| Cc1noc([C@@H]2CCCCN2c2ccc(-c3noc(C(F)(F)F)n3)cn2)n1 [Example 140, (S)-3-methyl-5-(1-(5-(5-(trifluoromethyl)-1,2,4-oxadiazol-3-yl)pyridin-2-yl)piperidin-2-yl)-1,2,4-oxadiazole] | 6.82 | 6.03 | 6.00 |
| O=C1COC[C@@H](c2ccccc2)N1c1cc(F)c(-c2noc(C(F)(F)F)n2)cc1F [Example 160, (R)-4-(2,5-difluoro-4-(5-(trifluoromethyl)-1,2,4-oxadiazol-3-yl)phenyl)-5-phenylmorpholin-3-one] | 8.52 | 5.89 | 4.92 |
| FC(F)(F)c1nc(-c2ccnc(OCCc3cccc4cn[nH]c34)c2)no1 [Example 167] | 6.05 | 5.60 | 6.32 |
| Fc1cc(COc2ccccc2)ccc1-c1noc(C(F)(F)F)n1 [Example 172, 3-(2-Fluoro-4-(phenoxymethyl)phenyl)-5-(trifluoromethyl)-1,2,4-oxadiazole] | 6.12 | 4.35 | 4.35 |
| O=C(C1CCS(=O)(=O)CC1)N(Cc1ccc(-c2noc(C(F)(F)F)n2)nn1)c1cccc(C(F)(F)F)c1 [Example 173, N-((6-(5-(Trifluoromethyl)-1,2,4-oxadiazol-3-yl)pyridazin-3-yl)methyl)-N′-(3-(trifluoromethyl)phenyl)tetrahydro-2H-thiopyran-4-carboxamide 1,1-dioxide] | 5.08 | 5.96 | 5.20 |
